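Each compound was tested at five concentrations against cells in 96-well plates for 48 hours. TGI denotes the concentration required for complete inhibition of growth.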
Assays:
Experiment in all cases: growth of human tumour cells (NCI), 48 h
CAKI-1 renal = system: CAKI-1 renal
BT-549 breast = system: BT-549 breast
HCT-15 colon = system: HCT-15 colon
MCF7 breast = system: MCF7 breast
HOP-92 NSCLC = system: HOP-92 NSCLC
HT29 colon = system: HT29 colon
COLO 205 colon = system: COLO 205 colon
NCI-H522 lung = system: NCI-H522 lung
CCRF-CEM leukemia = system: CCRF-CEM leukemia
MOLT-4 leukemia = system: MOLT-4 leukemia
M14 melanoma = system: M14 melanoma
PC-3 prostate = system: PC-3 prostate
NCI-H226 lung = system: NCI-H226 lung
A549 NSCLC = system: A549 NSCLC
ACHN renal = system: ACHN renal
OVCAR-8 ovarian = system: OVCAR-8 ovarian
MDA-N = system: MDA-N
SNB-75 CNS = system: SNB-75 CNS
SW-620 colon = system: SW-620 colon
A498 renal = system: A498 renal
SK-OV-3 ovarian = system: SK-OV-3 ovarian
DU-145 prostate = system: DU-145 prostate
SK-MEL-5 melanoma = system: SK-MEL-5 melanoma
SF-295 CNS = system: SF-295 CNS
SF-268 CNS = system: SF-268 CNS
HOP-62 NSCLC = system: HOP-62 NSCLC
SK-MEL-28 melanoma = system: SK-MEL-28 melanoma
OVCAR-3 ovarian = system: OVCAR-3 ovarian
EKVX NSCLC = system: EKVX NSCLC
UACC-257 melanoma = system: UACC-257 melanoma
MALME-3M melanoma = system: MALME-3M melanoma
RPMI-8226 leukemia = system: RPMI-8226 leukemia
TK-10 renal = system: TK-10 renal
NCI-H460 lung = system: NCI-H460 lung
LOX IMVI melanoma = system: LOX IMVI melanoma
HL-60(TB) leukemia = system: HL-60(TB) leukemia
UACC-62 melanoma = system: UACC-62 melanoma
K-562 leukemia = system: K-562 leukemia
MDA-MB-231 breast = system: MDA-MB-231 breast
SK-MEL-2 melanoma = system: SK-MEL-2 melanoma
HCC-2998 colon = system: HCC-2998 colon
KM12 colon = system: KM12 colon
SF-539 CNS = system: SF-539 CNS
SR leukemia = system: SR leukemia
U251 CNS = system: U251 CNS
OVCAR-5 ovarian = system: OVCAR-5 ovarian
SNB-19 CNS = system: SNB-19 CNS
UO-31 renal = system: UO-31 renal
IGROV1 ovarian = system: IGROV1 ovarian
NCI/ADR-RES ovarian = system: NCI/ADR-RES ovarian
HS 578T breast = system: HS 578T breast
HCT-116 colon = system: HCT-116 colon
NCI-H23 lung = system: NCI-H23 lung
T-47D breast = system: T-47D breast
MDA-MB-435 = system: MDA-MB-435
SN12C renal = system: SN12C renal
RXF 393 renal = system: RXF 393 renal
786-0 renal = system: 786-0 renal
OVCAR-4 ovarian = system: OVCAR-4 ovarian

Measured: TGI

Cc1noc(NS(=O)(=O)c2ccc(NC(=O)c3ccc4nc5ccccc5c(Nc5ccc(S(=O)(=O)Nc6onc(C)c6C)cc5)c4c3)cc2)c1C
60.7 µM: K-562 leukemia
> 100 µM: CAKI-1 renal | HCT-15 colon | MCF7 breast | HOP-92 NSCLC | HT29 colon | COLO 205 colon | NCI-H522 lung | CCRF-CEM leukemia | MOLT-4 leukemia | M14 melanoma | PC-3 prostate | NCI-H226 lung | A549 NSCLC | ACHN renal | OVCAR-8 ovarian | MDA-N | SNB-75 CNS | SW-620 colon | A498 renal | SK-OV-3 ovarian | DU-145 prostate | SK-MEL-5 melanoma | SF-295 CNS | SF-268 CNS | HOP-62 NSCLC | SK-MEL-28 melanoma | OVCAR-3 ovarian | EKVX NSCLC | UACC-257 melanoma | MALME-3M melanoma | RPMI-8226 leukemia | TK-10 renal | NCI-H460 lung | HL-60(TB) leukemia | UACC-62 melanoma | SK-MEL-2 melanoma | HCC-2998 colon | KM12 colon | SF-539 CNS | SR leukemia | U251 CNS | OVCAR-5 ovarian | SNB-19 CNS | UO-31 renal | IGROV1 ovarian | NCI/ADR-RES ovarian | HS 578T breast | HCT-116 colon | NCI-H23 lung | T-47D breast | MDA-MB-435 | SN12C renal | RXF 393 renal | 786-0 renal | OVCAR-4 ovarian
88.8 µM: BT-549 breast
80.8 µM: MDA-MB-231 breast
61.3 µM: LOX IMVI melanoma

O=C(O)CCC(=O)C(=O)O
> 100 µM: CAKI-1 renal | BT-549 breast | HCT-15 colon | MCF7 breast | HOP-92 NSCLC | HT29 colon | COLO 205 colon | NCI-H522 lung | CCRF-CEM leukemia | MOLT-4 leukemia | M14 melanoma | PC-3 prostate | NCI-H226 lung | A549 NSCLC | ACHN renal | OVCAR-8 ovarian | MDA-N | SNB-75 CNS | SW-620 colon | A498 renal | SK-OV-3 ovarian | DU-145 prostate | SK-MEL-5 melanoma | SF-295 CNS | SF-268 CNS | HOP-62 NSCLC | SK-MEL-28 melanoma | OVCAR-3 ovarian | EKVX NSCLC | UACC-257 melanoma | MALME-3M melanoma | RPMI-8226 leukemia | TK-10 renal | NCI-H460 lung | LOX IMVI melanoma | HL-60(TB) leukemia | UACC-62 melanoma | K-562 leukemia | MDA-MB-231 breast | SK-MEL-2 melanoma | HCC-2998 colon | KM12 colon | SF-539 CNS | SR leukemia | U251 CNS | OVCAR-5 ovarian | SNB-19 CNS | UO-31 renal | IGROV1 ovarian | NCI/ADR-RES ovarian | HS 578T breast | HCT-116 colon | NCI-H23 lung | T-47D breast | MDA-MB-435 | SN12C renal | RXF 393 renal | 786-0 renal | OVCAR-4 ovarian

— PubChem BioAssay (NCI)
